The source of these data is patent US20210405030A1, “MEANS AND METHODS FOR DETERMINING METABOLIC ADAPTATION” (EnFin GmbH, priority 2018, published 2021).

Where two headings read alike, the source gives them in different places. Square brackets hold non-standard residues; d marks the D form. Ends that are not written are not given here. pY = N[C@@H](Cc1ccc(OP(=O)(O)O)cc1)C(=O)O

Test [1] relates to Healthy blood donor mononuclear lymphocytes. The conditions noted are these: for Blood test result: reference interval 2.0±0.3.
Excerpt: The cellular model used herein discriminates between an immuno activating environment and an immune suppressive environment. An immuno activating environment comprises supplementation of growth factors/serum and allows growth and survival of blood derived immune cells. An immuno suppressive environment comprises deprivation of growth factors/serum (starvation) and diminishes growth and survival of blood derived immune cells. […] In both conditions a switch to anaerobic glycolysis was induced pharmacologically and proliferation and survival of immune cells was compared to unmodified immune cells.
Healthy blood donor mononuclear lymphocytes were cultured under normoxia (21%) and anoxia (0%). Enzyme activities of PK low affinity (PK la), PK high affinity (PK ha) and Lactate dehydrogenase (LDH) were measured in the homogenates.
A further test relates to PBMCs. Kind of test: Proliferation and survival of PBMCs in immuno activating (10% FCS) or immuno suppressive (starvation) environment (FIG. 1). In kind it is cell-based, human. The conditions noted are these: for proliferation and survival: GM-CSF 20 ng/ml, HMGB1 variants 200 nM. How it is done:
FIG. 1: Proliferation of PBMCs under the indicated conditions; P-M2 tide: induction of glycolysis by incubation with P-M2 tide; A) control (no activator compound); B) hGM-CSF added; C) to G) HMGB1 or variant thereof added.
To evaluate to what extent and by which agent anerg immune cells could be stimulated we used recombinant human GM-CSF (20 ng/ml, FIG. 1 B) or recombinant/synthetic variants of the immune system stimulating human HMGB1 cytokine (200 nM, FIG. 1 C-G).

For GGAVDDD[pY]AQFANGG [P-M2 tide], the values for the Blood test result in test [1] (10% FCS (immuno activating environment) + P-M2 tide) and in test [1] (starvation (immune suppressive environment) + P-M2 tide) were 0.30 and 1.37, respectively. Moreover, the “shift from OXPHOS to anaerobic glycolysis” value in test [1] (ex vivo human immune cells, blocking the PK tetramer) was “enables immune cells to shift from OXPHOS to anaerobic glycolysis”.

In the case of “GM-CSF: human granulocyte monocyte colony stimulating factor, recombinant”, the proliferation and survival entry in the test with PBMCs (immuno-suppressed (starved) cells showing a switch to anaerobic glycolysis) was “fully rescued from cell death and showed increased proliferation (and survival)”; in the test with PBMCs (immuno-suppressed (starved) cells with no switch to anaerobic glycolysis), “partly rescued”.

B1: Wildtype human recombinant HMGB1: high mobility group box 1 protein, immuno-stimulating cytokine and DAMP (SEQ ID NO:3) (protein, listed as Homo sapiens)
chain: MGKGDPKKPRGKMSSYAFFVQTCREEHKKKHPDASVNFSEFSKKCSERWKTMSAKEKGKFEDMAKADKARYEREMKTYIPPKGETKKKFKDPNAPKRPPSAFFLFCSEYRPKIKGEHPGLSIGDVAKKLGEMWNNTAADDKQPYEKKAAKLKEKYEKDIAAYRAKGKPDAAKKGVVKAEKSKKKKEEEEDEEDEEDEEEEEDEEDEDEEEDDDDE
With B1, the “proliferation and survival of immune cells” value in the test with PBMCs (200 nM, condition not further specified) was “failed to increase proliferation and survival”.
